Laboratory results published in patent publication US20110105491A1, “THIAZOLIDINE COMPOUNDS AS OREXIN RECEPTOR ANTAGONISTS” (priority 2008, published 2011).
Read-outs that look alike come from different tables or passages of the source.

Legend:
human orexin-1 receptor = biological target: T1, human orexin-1 receptor (Homo sapiens, UniProt O43613); test: FLIPR calcium assay of orexin receptor antagonistic activity, CHO cells expressing human orexin-1 receptor; assay type: cell-based; conditions: read-out: OX1 IC50
T1 construct: expressed in transfected cells; host or cells: Chinese hamster ovary (CHO) cells
T1 sequence (O43613 1-425): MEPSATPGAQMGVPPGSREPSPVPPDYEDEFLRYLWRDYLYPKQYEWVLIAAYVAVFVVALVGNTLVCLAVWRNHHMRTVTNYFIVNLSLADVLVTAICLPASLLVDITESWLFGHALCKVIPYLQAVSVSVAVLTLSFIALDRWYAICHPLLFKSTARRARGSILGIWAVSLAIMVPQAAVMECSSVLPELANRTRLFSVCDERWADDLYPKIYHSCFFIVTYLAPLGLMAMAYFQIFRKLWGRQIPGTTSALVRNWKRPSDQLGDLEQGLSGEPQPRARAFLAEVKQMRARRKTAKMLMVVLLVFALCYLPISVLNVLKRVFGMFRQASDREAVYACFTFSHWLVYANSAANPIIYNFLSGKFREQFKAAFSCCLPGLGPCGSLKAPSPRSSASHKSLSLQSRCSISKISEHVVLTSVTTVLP
Protocol: (§1) The orexin receptor antagonistic activity of the compounds of formula (I) is determined in accordance with the following experimental method.
(§2) Chinese hamster ovary (CHO) cells expressing the human orexin-1 receptor and the human orexin-2 receptor, respectively, are grown in culture medium (Ham F-12 with L-Glutamine) containing 300 μg/ml G418, […] penicillin, 100 μg/ml streptomycin and 10% heat inactivated fetal calf serum (FCS). The cells are seeded at 20′000 cells/well into 384-well black clear bottom sterile plates (Greiner). The seeded plates are incubated overnight at 37° C. in 5% CO2.
(§3) Human orexin-A as an agonist is prepared as 1 mM stock solution in MeOH:water (1:1), diluted in HBSS containing 0.1% bovine serum albumin (BSA), NaHCO3: 0.375 g/l and 20 mM HEPES for use in the assay at a final concentration of 3 nM.
(§4) Antagonists are prepared as 10 mM stock solution in DMSO, then diluted in 384-well plates using DMSO followed by a transfer of the dilutions into in HBSS containing 0.1% bovine serum albumin (BSA), NaHCO3: 0.375 g/l and 20 mM HEPES. On the day of the assay, 50 μl of staining buffer (HBSS containing 1% FCS, 20 mM HEPES, NaHCO3: 0.375 g/l, 5 mM probenecid (Sigma) and 3 μM of the fluorescent calcium indicator fluo-4 AM (1 mM stock solution in DMSO, containing 10% pluronic) is added to each well. The 384-well cell-plates are incubated for 50 min at 37° C. in 5% CO2 followed by equilibration at rt for 30-120 min before measurement.
(§5) Within the Fluorescent Imaging Plate Reader (FLIPR Tetra, Molecular Devices), antagonists are added to the plate in a volume of 10 μl/well, incubated for 10 min and finally […] of agonist is added. Fluorescence is measured for each well at 1 second intervals, and the height of each fluorescence peak is compared to the height of the fluorescence peak induced by 3 nM orexin-A with vehicle in place of antagonist. For each antagonist, the IC50 value (the concentration of compound needed to inhibit 50% of the agonistic response) is determined and may be normalized using the obtained IC50 value of a on-plate reference compound (normalized values in Table 1 are indicated by an asterisk *). Optimized conditions were achieved by adjustment of pipetting speed and cell splitting regime. The calculated IC50 values of the compounds may fluctuate depending on the daily cellular assay performance. Fluctuations of this kind are known to those skilled in the art.

human orexin-2 receptor = biological target: T2, human orexin-2 receptor (Homo sapiens, UniProt O43614); test: FLIPR calcium assay of orexin receptor antagonistic activity, CHO cells expressing human orexin-2 receptor; assay type: cell-based; conditions: read-out: OX2 IC50
T2 construct: expressed in transfected cells; host or cells: Chinese hamster ovary (CHO) cells
T2 sequence (O43614 1-444): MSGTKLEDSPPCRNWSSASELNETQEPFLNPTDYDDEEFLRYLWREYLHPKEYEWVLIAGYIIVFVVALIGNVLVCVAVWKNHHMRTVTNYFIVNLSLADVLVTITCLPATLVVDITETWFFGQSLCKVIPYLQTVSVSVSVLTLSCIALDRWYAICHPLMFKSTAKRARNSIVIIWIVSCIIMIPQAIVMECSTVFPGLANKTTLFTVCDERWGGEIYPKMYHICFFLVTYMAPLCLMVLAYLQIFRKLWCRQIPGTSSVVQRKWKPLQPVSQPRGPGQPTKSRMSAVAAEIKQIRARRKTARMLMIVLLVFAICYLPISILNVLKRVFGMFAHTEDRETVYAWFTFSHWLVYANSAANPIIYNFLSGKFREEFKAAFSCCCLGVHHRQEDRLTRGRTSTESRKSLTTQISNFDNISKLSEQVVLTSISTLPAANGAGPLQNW
Protocol: as §1, §2, §3, §4, §5

rat = conditions: cited from earlier work
rat model = conditions: cited from earlier work
[1] = test system: rat model of post-traumatic stress disorder; conditions: cited from earlier work
[2] = 3 nM orexin-A as agonist, not normalized, *2/*3 = geometric mean of n = 2/3 values

SMILES | IC50 (human orexin-1 receptor; [2]) [nM] | IC50 (human orexin-2 receptor; [2]) [nM] | IC50 (human orexin-1 receptor) [nM] | IC50 (human orexin-2 receptor) [nM] | other results
Cc1nc(C(=O)N2CCSC2CNC(=O)c2cccc3ncsc23)c(-c2ccc(C)c(F)c2)s1 (racemic) [Example 120, rac-Benzothiazole-7-carboxylic acid {3-[5-(3-fluoro-4-methyl-phenyl)-2-methyl-thiazole-4-carbonyl]-thiazolidin-2-ylmethyl}-amide] | 8 | 7 | – | – | –
Cc1nc(C(=O)N2CCSC2CNC(=O)c2nn(C)c3ccccc23)c(-c2ccc(C)c(F)c2F)s1 (racemic) [Example 126, rac-1-Methyl-1H-indazole-3-carboxylic acid {3-[5-(2,3-difluoro-4-methyl-phenyl)-2-methyl-thiazole-4-carbonyl]-thiazolidin-2-ylmethyl}-amide] | 11 | 11 | – | – | –
Cc1cccc(-c2sc(N(C)C)nc2C(=O)N2CCSC2CNC(=O)c2cccc3c2CCO3)c1 (racemic) [Example 128, rac-2,3-Dihydro-benzofuran-4-carboxylic acid [3-(2-dimethylamino-5-m-tolyl-thiazole-4-carbonyl)-thiazolidin-2-ylmethyl]-amide] | 12 | 14 | – | – | –
CCc1onc(C)c1C(=O)NCC1SCCN1C(=O)c1nc(C)sc1-c1cccc(C)c1 (racemic) [Example 140, rac-5-Ethyl-3-methyl-isoxazole-4-carboxylic acid [3-(2-methyl-5-m-tolyl-thiazole-4-carbonyl)-thiazolidin-2-ylmethyl]-amide] | – | – | 9 | 9 | –
Cc1cccc(-c2sc(C)nc2C(=O)N2CCSC2CNC(=O)c2cnn(C)c2C(F)(F)F)c1 (racemic) [Example 142, rac-1-Methyl-5-trifluoromethyl-1H-pyrazole-4-carboxylic acid [3-(2-methyl-5-m-tolyl-thiazole-4-carbonyl)-thiazolidin-2-ylmethyl]-amide] | – | – | 5 | 12 | –
COc1ncccc1C(=O)NCC1SCCN1C(=O)c1nc(C)sc1-c1cccc(C)c1 (racemic) [Example 160, rac-2-Methoxy-N-[3-(2-methyl-5-m-tolyl-thiazole-4-carbonyl)-thiazolidin-2-ylmethyl]-nicotinamide] | – | – | 4 | 15 | –
Cc1cccc(-c2sc(C)nc2C(=O)N2CCSC2CNC(=O)c2cccc(C(F)(F)F)n2)c1 (racemic) [Example 162, rac-6-Trifluoromethyl-pyridine-2-carboxylic acid [3-(2-methyl-5-m-tolyl-thiazole-4-carbonyl)-thiazolidin-2-ylmethyl]-amide] | – | – | 5 | 41 | –
Cc1cccc(-c2sc(C)nc2C(=O)N2CCSC2CNC(=O)c2nc(C)oc2C)c1 (racemic) [Example 163, rac-2,5-Dimethyl-oxazole-4-carboxylic acid [3-(2-methyl-5-m-tolyl-thiazole-4-carbonyl)-thiazolidin-2-ylmethyl]-amide] | – | – | 5 | 8 | –
Cc1cccc(-c2sc(C)nc2C(=O)N2CCSC2CNC(=O)c2sc(C)nc2C)c1 (racemic) [Example 165, rac-2,4-Dimethyl-thiazole-5-carboxylic acid [3-(2-methyl-5-m-tolyl-thiazole-4-carbonyl)-thiazolidin-2-ylmethyl]-amide] | – | – | 6 | 5 | –
CNC(=O)[C@@H](c1ccccc1)N1CCc2cc(OC)c(OC)cc2[C@@H]1CCc1ccc(C(F)(F)F)cc1 [(2R)-2-{(1S)-6,7-dimethoxy-1-[2-(4-trifluoromethyl-phenyl)-ethyl]-3,4-dihydro-1H-isoquinolin-2-yl}-N-methyl-2-phenyl-acetamide] | – | – | – | – | alertness (active wake and locomotion) (rat): decrease alertness; time spent in REM and NREM sleep (rat): dose-dependently increase the time spent in both REM and NREM sleep; memory function (rat model): enhance memory function; activity in model of post-traumatic stress disorder [1]: active
